Reference: ChEMBL document CHEMBL1123339, “Ligand-receptor interactions via hydrogen-bond formation. Synthesis and pharmacological evaluation of pyrrolo and pyrido analogues of the cardiotonic agent 7-hydroxycyclindole” (1986)

Organism: Felis catus
Assay: Compound was evaluated for positive inotropic activity in vitro on cat papillary muscle, expressed as the percent increase over base-line contractility at 1 x 10 e-4 M
Type: functional

| SMILES | Increase [%] |
| --- | --- |
| CN(C)C1CCc2[nH]c3cc(O)ccc3c2C1 (stereo not given) | 50 |
| CN(C)C1CCc2[nH]c3c(ccc4ncccc43)c2C1 (stereo not given) | 80 |
| CN(C)C1CCc2[nH]c3c(ccc4[nH]ccc43)c2C1 (stereo not given) | 15 |
| CN(C)C1CCc2c(c3ccc4ncccc4c3n2C)C1 (stereo not given) | 69 |
| Nc1cc(-c2ccncc2)c[nH]c1=O [INAMRINONE] | 50 |
